Experimental data from PubChem BioAssay AID2305 (GlaxoSmithKline (GSK), 2010).

test system: P. falciparum 3D7 growth, pLDH absorbance; assay: P. falciparum 3D7 growth inhibition, dose response, strain 3D7 (AID 2305)

SMILES	IC50
COC(=O)c1ccc(OCC(C)NCC(O)c2cccc(C(F)(F)F)c2)cc1 (stereo not drawn)	840 nM
Cn1nccc1C(=O)NCCNCc1cccc(-c2ccc(-c3nc4ccc(C(F)(F)F)cc4[nH]3)s2)c1	150 nM
COc1ccc(CNC2Cc3ccccc3C2)cc1-c1cccc(S(=O)(=O)NCCN2CCCC2)c1	760 nM
CC1CCN(C(=O)[C@H](Cc2c[nH]c3ccccc23)NS(=O)(=O)c2ccc(Cl)cc2)CC1	670 nM
COc1ccc(Nc2nccc(-c3c(-c4cccc(NC(=O)c5c(F)cccc5F)c4)nn4ccccc34)n2)cc1Cl	280 nM
c1cc(CNCCN2CCNCC2)cc(-c2ccc(-c3nc4ccccc4[nH]3)cc2)c1	1080 nM
Fc1ccc2nc(-c3cccc(-c4ccc(CNCCc5ccncc5)cc4)c3)[nH]c2c1	110 nM
CCc1ccc(S(=O)(=O)Nc2ccc(CCN3CCC(N4CCCCC4)CC3)cc2)cc1	990 nM
CN1CCN(Cc2ccc(-c3cc4c(Nc5ccc(OCc6cccc(F)c6)c(Cl)c5)ncnc4s3)[nH]2)CC1	770 nM
CC(=O)Nc1cccc(Nc2nccc(Nc3ccc(Oc4ccccc4)cc3)n2)c1	750 nM
CC(C)(C)c1ccc(CNCC(C)(C)c2nc(-c3ccc(Cl)c(O)c3)c(-c3ccnc(N)n3)[nH]2)cc1	700 nM
O=C(NCCNc1ccnc(Nc2ccc(F)cc2)n1)Nc1ccc2c(c1)OCO2	680 nM
COC(=O)c1ccc(NC(=O)c2ccc(CCN3CCC(c4nc(COCC(F)(F)F)c(-c5ccc(F)cc5)o4)CC3)cc2)cc1	1040 nM
COc1cccc(NC(=O)NCCNc2ccnc(Nc3ccc(F)cc3)n2)c1	920 nM
COc1cc(Nc2ncc3c(C)nc(-c4cccc(Nc5ccc(CN6CCS(=O)(=O)CC6)cc5)c4)n3n2)cc(OC)c1OC	870 nM
N=c1n(CCN2CCCC2)c2ccccc2n1CC(O)c1ccc(Cl)c(Cl)c1 (stereo not drawn)	280 nM
COc1c(C2CCN(CCCCNC(=O)c3ccc(-c4ccc(NC(=O)C(F)(F)F)cc4)cc3)CC2)ccc2c1CCCC2	1000 nM
CN(C)CCOc1ccc(-n2c(-c3nonc3N)nc3cncc(-c4ccc(F)cc4)c32)cc1	870 nM
COc1ccc(CC(C)NCC(O)c2cccc(Cl)c2F)cc1 (stereo not drawn)	1080 nM
COc1ccc(Nc2ncc3c(-c4ccc(NC(=O)c5cccc(C(F)(F)F)c5)cc4)c[nH]c3n2)cc1OC	1030 nM
c1cc(COc2ccc(C3=NCCN3)cc2)nc(COc2ccc(C3=NCCN3)cc2)c1	150 nM
O=C(Nc1ccc(F)c(Cl)c1)c1cc([N+](=O)[O-])cc2cn[nH]c12	320 nM
CC(CN1CCN(C)CC1)C(=O)Nc1cccc(-c2ccc(-c3nc4ccccc4[nH]3)s2)c1 (stereo not drawn)	630 nM
NC1CCN(c2nc(NCCc3ccc(O)cc3)nc(NCc3ccccc3-c3ccccc3)n2)CC1	820 nM

SMILES	IC50
Cc1cccc2[nH]c(-c3cccc(-c4ccc(NC(=O)NCc5ccccc5)cc4)c3)nc12	230 nM
Cc1ccc(C(=O)Nc2ccc(F)cc2)cc1-c1nc(NC2CC(C)(C)NC(C)(C)C2)nc2c1ccc(=O)n2-c1c(F)cccc1F	680 nM
CC(=O)Nc1ncc(C(=O)Nc2ccc(-c3cccc(-c4nc5ccc(C(F)(F)F)cc5[nH]4)c3)cc2)s1	260 nM
CN(C)c1ccc(CN2CCC(NC(=O)c3ccc(-c4ccc(N(C)C)cc4)s3)CC2)cc1	1070 nM
CCCCc1cc(NCC)nc(Nc2ccc(F)cc2)n1	790 nM
Cc1ccccc1CNc1noc(-c2c(F)cccc2Cl)n1	720 nM
Cc1cc(NCc2ccccc2)nc2cc(O)ccc12	780 nM
O=C(Nc1cccc(CN2CCCN(CC3CCCCC3)CC2)c1)c1ccc(Cl)c(Cl)c1	960 nM
COc1c(OC)c(OC)c2ccccc2c1CCNCCCCNCCc1c(OC)c(OC)c(OC)c2ccccc12	610 nM
O=C(/C=C/c1ccc(Cl)c(Cl)c1)NCCCCCN1CCC(NC(=S)Nc2ccc(Cl)cc2Cl)CC1	740 nM
COc1ccc2nccc([C@@H](O)CN3CCC(NCc4cc5ccc(Cl)cc5[nH]4)CC3)c2c1	120 nM
C[C@H](NC(=O)c1c(CN2CCN(C(=O)C(C)(C)C)CC2)c(-c2cccs2)nc2ccccc12)C1CCCCC1	1180 nM
CCc1cc(COc2ccc(CNCCC(C)C)cc2I)c(OCc2ccccc2)c(COc2ccc(CNCCC(C)C)cc2I)c1	1110 nM
COc1cc(NC2=C(c3ccccc3)C(=O)c3ccccc32)ccn1	360 nM
CCc1c[nH]c2c(N3CCCC3=O)cc(C(=O)N[C@@H](Cc3ccccc3)[C@H](O)CNC(C)(C)c3cccc(OC)c3)cc12	190 nM
Nc1c2c(nc3ccc(NC(=O)CCCc4ccccc4)cc13)CCCC2	430 nM
O=C(Nc1cccc(-c2cccc(CN3CCCC3)c2)c1)c1ccc(Cl)cc1	680 nM
O=C(/C=C/c1ccc(Cl)c(Cl)c1)NCCCCCN1CCCC(CNC(=O)c2sc3ccccc3c2Cl)C1 (stereo not drawn)	870 nM
CC(C)CNCc1cccc(-c2ccc(CN(C(=O)Nc3ccccc3)C3CCN(Cc4ccccc4)CC3)cc2)c1	480 nM
COc1ccc(Cl)cc1S(=O)(=O)Nc1cccc(CCN2CCC(N3CCCCC3)CC2)c1	700 nM
FC(F)(F)c1ccc2nc(-c3ccc(-c4ccc(CN5CCN(c6cnccn6)CC5)cc4)cc3)[nH]c2c1	690 nM
Oc1ccc(CCNc2nc(NCc3ccccc3-c3ccccc3)nc(N3CCCNCC3)n2)cc1	880 nM
CC(C)(C)C(=O)Nc1ccc(C(=O)Nc2cccc(-c3nc4ccccc4[nH]3)c2)cc1	280 nM
Cc1[nH]c2ccccc2c1C(=O)CSc1nn(-c2ccccc2)c(=S)s1	700 nM
